Data from the NIST ThermoML archive (doi:10.1016/j.jct.2016.10.007).

Legend:
[1] = Wilhemy plate method
[2] = wn = mass fraction of the nth substance listed; conditions: Wilhemy plate method

CCN(CC)CCO [(diethylamino)ethanol]
[1]
Conditions | surface tension liquid-gas [mN/m]
283.2 K | 29.7
293.2 K | 28.6
303.2 K | 27.7
313.2 K | 26.4
323.2 K | 25.2

CCN(CC)CCO [(diethylamino)ethanol] + O
surface tension liquid-gas [mN/m], [2]
Conditions | 303.2 K | 313.2 K | 323.2 K
w1 = 0.1 | 41.2 | 39.2 | 37.3
w1 = 0.137 | 40.1 | – | –
w1 = 0.2 | 36.5 | 34.7 | 33.1
w1 = 0.213 | 36.3 | – | –
w1 = 0.3 | 34.9 | 33.2 | 31.7
w1 = 0.4 | 33.6 | 32.1 | 30.7
w1 = 0.483 | 32.9 | – | –
w1 = 0.5 | 32.7 | 31.2 | 29.9
w1 = 0.58 | 31.8 | – | –
w1 = 0.6 | 31.3 | 29.8 | 28.3
w1 = 0.685 | 30.7 | – | –
w1 = 0.7 | 30.3 | 28.7 | 27.3
w1 = 0.8 | 29.6 | 28 | 26.6
w1 = 0.814 | 29.5 | – | –
w1 = 0.9 | 28.7 | 27.3 | 26
w1 = 0.91 | 28.6 | – | –
w1 = 1 | 27.7 | 26.4 | 25.2

O [water]
Conditions | surface tension liquid-gas [mN/m]
[1], 298.2 K | 71.9
